Laboratory results as given in patent US20140308313A1 (priority 2006, published 2014).

System: IgG1 and IgG2a antibodies to TT
Parameters: species or system mice
Conditions: mouse, in vivo

For `CCCCCCCCCCCCCCCCCCCCCCCCCC(=O)N[C@@H](CO[C@H]1OC(CO)[C@H](O)C(O)C1O)[C@H](O)[C@@H](O)CCCCCCCCCCCCCC` (stereo partly drawn) [α-GC, α-galactosylceramide], the “production of IgG1 and IgG2a antibodies compared to CFA, CpG, MF59 and Alum” value was “overall as potent as the above benchmark adjuvants”.
